In ChEMBL document CHEMBL2449286, “Structure-activity data for a series of P-glycoprotein inhibitors (Supplementary Data to CHEMBL1142990)”:

What follows are compounds tested against ATP-dependent translocase ABCB1 (Homo sapiens, UniProt P08183).
ATP-dependent translocase ABCB1, sequence (P08183 whole entry): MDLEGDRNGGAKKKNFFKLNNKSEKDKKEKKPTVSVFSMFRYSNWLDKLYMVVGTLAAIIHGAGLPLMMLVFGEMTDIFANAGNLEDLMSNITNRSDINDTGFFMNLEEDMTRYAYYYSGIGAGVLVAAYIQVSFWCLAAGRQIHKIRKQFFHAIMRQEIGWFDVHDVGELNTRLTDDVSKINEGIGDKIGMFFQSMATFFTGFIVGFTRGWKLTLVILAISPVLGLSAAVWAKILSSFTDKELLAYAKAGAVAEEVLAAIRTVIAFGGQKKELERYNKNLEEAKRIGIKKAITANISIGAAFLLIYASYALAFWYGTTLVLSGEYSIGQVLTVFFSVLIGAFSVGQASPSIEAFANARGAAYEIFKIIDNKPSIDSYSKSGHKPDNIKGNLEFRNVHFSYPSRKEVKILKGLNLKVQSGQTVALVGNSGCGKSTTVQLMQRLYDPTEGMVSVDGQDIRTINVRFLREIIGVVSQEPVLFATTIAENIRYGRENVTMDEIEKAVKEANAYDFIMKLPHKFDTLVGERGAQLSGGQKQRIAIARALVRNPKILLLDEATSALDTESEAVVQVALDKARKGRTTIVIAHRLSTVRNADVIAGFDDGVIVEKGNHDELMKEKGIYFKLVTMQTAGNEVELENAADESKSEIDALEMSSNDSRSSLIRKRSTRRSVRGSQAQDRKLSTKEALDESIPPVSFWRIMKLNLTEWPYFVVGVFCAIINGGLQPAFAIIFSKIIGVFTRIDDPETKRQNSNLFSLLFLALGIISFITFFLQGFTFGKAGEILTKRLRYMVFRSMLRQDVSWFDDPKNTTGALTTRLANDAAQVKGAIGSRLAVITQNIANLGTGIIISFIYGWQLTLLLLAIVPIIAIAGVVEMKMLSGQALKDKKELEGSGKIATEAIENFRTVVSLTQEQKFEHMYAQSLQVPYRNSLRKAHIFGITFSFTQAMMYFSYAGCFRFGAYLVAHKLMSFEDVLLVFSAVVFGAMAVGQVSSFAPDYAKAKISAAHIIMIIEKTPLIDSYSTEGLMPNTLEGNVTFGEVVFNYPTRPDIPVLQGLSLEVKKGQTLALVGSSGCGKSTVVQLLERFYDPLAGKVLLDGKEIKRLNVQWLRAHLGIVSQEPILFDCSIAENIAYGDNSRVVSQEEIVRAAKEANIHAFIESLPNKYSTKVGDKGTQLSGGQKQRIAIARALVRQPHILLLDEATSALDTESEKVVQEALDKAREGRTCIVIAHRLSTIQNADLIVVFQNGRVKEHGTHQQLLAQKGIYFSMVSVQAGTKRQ

EC50 [µM] | SMILES
3.09 | Cc1ccc(-c2n[nH]c3c2[C@@H](c2ccc(N(C)C)cc2)C(C#N)=C(N)O3)cc1
0.0178 | O=C(CCc1cccc2ccccc12)c1ccccc1OC[C@H](O)CN1CCN(c2ccc(F)cc2)CC1
5.37 | O=C(c1ccccc1)c1ccc(OC[C@H](O)CN2CCOCC2)cc1
2.19 | O=C(c1ccccc1)c1ccc(OC[C@H](O)CN2CCCCC2)cc1
7.76 | CCC(=O)c1ccc(OC[C@H](O)CN(C(C)C)C(C)C)cc1
0.575 | O=C(c1ccccc1)c1cccc(OC[C@H](O)CN2CCN(c3ccc(F)cc3)CC2)c1
0.174 | Cc1cccc(N2CCN(C[C@@H](O)COc3cccc(C(=O)c4ccccc4)c3)CC2)c1C
3.55 | O=C(c1ccccc1)c1cccc(OC[C@H](O)CN2CCCCC2)c1
0.204 | Cc1ccccc1N1CCN(C[C@@H](O)COc2cccc(C(=O)c3ccccc3)c2)CC1
0.479 | Cc1cccc(N2CCN(C[C@@H](O)COc3ccc(C(=O)CCc4cccc5ccccc45)cc3)CC2)c1C
0.55 | O=C(CCc1cccc2ccccc12)c1ccc(OC[C@H](O)CN2CCN(c3ccc(F)cc3)CC2)cc1
0.407 | Cc1ccccc1N1CCN(C[C@@H](O)COc2ccc(C(=O)CCc3cccc4ccccc34)cc2)CC1
0.263 | Cc1cccc(N2CCN(C[C@@H](O)COc3cccc(C(=O)CCc4cccc5ccccc45)c3)CC2)c1C
0.437 | CC(C)N(C[C@@H](O)COc1ccc(C(=O)c2ccccc2)cc1)C(C)C
11.5 | O=C(c1ccccc1)c1cccc(OC[C@H](O)CN2CCOCC2)c1
0.263 | O=C(CCc1cccc2ccccc12)c1ccc(OC[C@H](O)CN2CCCCC2)cc1
0.115 | CC(C)N(C[C@@H](O)COc1ccc(C(=O)CCc2cccc3ccccc23)cc1)C(C)C
0.631 | O=C(CCc1cccc2ccccc12)c1cccc(OC[C@H](O)CN2CCOCC2)c1
0.145 | O=C(CCc1cccc2ccccc12)c1cccc(OC[C@H](O)CN2CCCCC2)c1
0.0589 | CC(C)N(C[C@@H](O)COc1cccc(C(=O)CCc2cccc3ccccc23)c1)C(C)C
15.8 | Cc1c(C(=O)c2ccccc2)c(=O)n(-c2ccccc2)n1C[C@H](O)CN(C(C)C)C(C)C
0.891 | Cc1ccccc1N1CCN(C[C@@H](O)Cn2c(C)c(C(=O)c3ccccc3)c(=O)n2-c2ccccc2)CC1

EC50 [µM] | SMILES
24 | Cc1c(C(=O)c2ccccc2)c(=O)n(C)n1C[C@H](O)CN(C(C)C)C(C)C
1.2 | Cc1nn(C)c(OC[C@H](O)CN(C(C)C)C(C)C)c1C(=O)c1ccccc1
24 | Cc1c([C@H](O)c2ccccc2)c(=O)n(-c2ccccc2)n1C[C@H](O)CN(C(C)C)C(C)C
3.72 | CCC/N=C(/CCc1ccccc1)[C@H]1C(=O)N(c2ccccc2)N=C1C
6.31 | CCCNC[C@@H](O)Cn1c(C)c(C(=O)CCc2ccccc2)c(=O)n1-c1ccccc1
186 | CCCNC[C@@H](O)Cn1c(C)c(C(=O)c2ccccc2)c(=O)n1-c1ccccc1
11.7 | Cc1c(C(=O)CCc2ccccc2)c(=O)n(-c2ccccc2)n1C[C@H](O)CNC(C)C
7.76 | Cc1c(C(=O)CCc2ccccc2)c(=O)n(-c2ccccc2)n1C[C@H](O)CNC(C)(C)C
2.69 | CCCCNC[C@@H](O)Cn1c(C)c(C(=O)CCc2ccccc2)c(=O)n1-c1ccccc1
72.4 | Cc1c(C(=O)c2cccs2)c(=O)n(-c2ccccc2)n1C[C@H](O)CNC(C)(C)C
123 | Cc1c(C(=O)c2cccs2)c(=O)n(-c2ccccc2)n1C[C@H](O)CNC(C)C
83.2 | Cc1c(C(=O)c2ccccc2)c(=O)n(-c2ccccc2)n1C[C@H](O)CNC(C)C
81.3 | Cc1c(C(=O)c2ccccc2)c(=O)n(-c2ccccc2)n1C[C@H](O)CNC(C)(C)C
95.5 | CCCNC[C@@H](O)Cn1c(C)c(C(=O)c2cccs2)c(=O)n1-c1ccccc1
0.813 | CCCNC[C@@H](O)COc1ccsc1C(=O)CCc1ccccc1
61.7 | CN1CCO[C@@H]2[C@@H]1c1cc(C#N)ccc1OC2(C)C
19.5 | CC1(C)Oc2ccc(C#N)cc2[C@H]2[C@H]1OCCN2Cc1ccccc1
97.7 | CN(CCO)[C@H]1c2cc(C#N)ccc2OC(C)(C)[C@@H]1O
5.37 | CC1(C)Oc2ccc(C#N)cc2[C@H](N(CCO)Cc2ccccc2)[C@H]1O
0.977 | CC(C)[C@H](C(=O)OC(C)(C)C)N(C)[C@H]1c2cc(C#N)ccc2OC(C)(C)[C@@H]1O
49 | CC(C)[C@@H]1CO[C@@H]2[C@@H](N1)c1cc(C#N)ccc1OC2(C)C
3.55 | COc1ccccc1N1CCN([C@H]2c3ccccc3N(C(=O)c3ccc(C)cc3)[C@H](C)[C@@H]2O)CC1

EC50 [µM] | SMILES
9.12 | CCN(CCO)[C@@H]1c2ccccc2N(C(=O)c2ccc(C)cc2)[C@H](C)[C@@H]1O
1.38 | Cc1ccc(C(=O)N2c3ccccc3[C@@H](N(CCO)Cc3ccccc3)[C@@H](O)[C@H]2C)cc1
3.24 | Cc1ccc(C(=O)N2c3ccccc3[C@H](NCc3ccccc3)[C@@H](O)[C@H]2C)cc1
0.427 | Cc1ccc(C(=O)N2c3ccccc3[C@H](N3CCN(Cc4ccccc4)CC3)[C@@H](O)[C@H]2C)cc1
7.94 | Cc1ccc(C(=O)N2c3ccccc3[C@@H](N3CCCC3)[C@@H](O)[C@H]2C)cc1
4.68 | Cc1ccc(C(=O)O[C@@H]2[C@H](N3CCCC3)c3ccccc3N[C@@H]2C)cc1
2.69 | CCN(CC)CCC[C@H](C)N[C@@H]1c2ccccc2N(C(=O)c2ccc(C)cc2)[C@H](C)[C@@H]1O
0.331 | CCN(CC)CCC[C@H](C)N[C@@H]1c2ccccc2N[C@H](C)[C@@H]1OC(=O)c1ccc(C)cc1
1.78 | CC(C)[C@H](N[C@H]1c2cc(C#N)ccc2OC(C)(C)[C@@H]1O)C(=O)OC(C)(C)C
1.2 | CCc1ccc(N2C(=O)c3ccccc3N[C@H]2c2ccc(OCC(C)C)cc2)cc1
25.1 | CCOc1ccc(N2C(=O)c3ccccc3N[C@H]2c2ccc(N(C)C)cc2)cc1
20.9 | COc1ccc([C@@H]2Nc3ccccc3C(=O)N2c2ccc(NC(C)=O)cc2)cc1
1 | COc1ccc([C@@H]2Nc3ccccc3C(=O)N2c2ccc(Oc3ccccc3)cc2)cc1
0.759 | CC[C@H](C)c1ccc(N2C(=O)c3ccccc3N[C@H]2c2ccc(OC)cc2)cc1
0.288 | CC[C@H](C)c1ccc(N2C(=O)c3ccccc3N[C@H]2c2ccc(C(C)C)cc2)cc1
0.741 | CC(C)(C)c1ccc(N2C(=O)c3ccccc3N[C@H]2c2ccc3c(c2)OCO3)cc1
8.71 | CCOc1ccccc1NC(=O)C1=C(C)NC(=S)N[C@@H]1c1cccs1
2 | CC(C)(C)OC(=O)CN(Cc1ccccc1)[C@H]1c2cc(C#N)ccc2OC(C)(C)[C@@H]1O
0.851 | CC1(C)Oc2ccc(C#N)cc2[C@H](N2CCN(Cc3ccccc3)CC2)[C@H]1O
46.8 | CC(C)(C)OC(=O)CN[C@H]1c2cc(C#N)ccc2OC(C)(C)[C@@H]1O
